The target in the test is recombinant human AKR1C3 (Homo sapiens (Human), UniProt P42330). Nature of the test: AKR1C3-inhibitory activity assay (Coumberone to Coumberol fluorescence). The conditions noted are these: recombinant human AKR1C3, 15 min pre-incubation, 10 μM NADPH, 0.3 μM Coumberone. The class given is biochemical. As to the method: The AKR1C3-inhibitory activity of the substances of the present invention was measured in the AKR1C3 assay described in the paragraphs below.
Essentially, the enzyme activity is measured by quantification of the generation of Coumberol from Coumberone (Halim et al. J. AM. CHEM. SOC. 2008, 130:14123-14128 and Yee et al. Proc. Natl. Acad. Sci. USA 2006, 103:13304-13309). In this test, the increase of the highly fluorescent Coumberol by NADPH—(nicotinamide adenine dinucleotide phosphate)-dependent reduction of the non-fluorescent Coumberone by AKR1C3 was determined.
The enzyme used was recombinant human AKR1C3 (Aldo-keto reductase family 1 member C3; GenBank Accession No. NM_003739). This was expressed in E. coli as GST (glutathione S transferase) fusion protein and purified by glutathione Sepharose affinity chromatography. The GST was removed by digestion with thrombin and subsequent size exclusion chromatography (Dufort, I., Rheault, P., Huang, X F., Soucy, P., and Luu-The, V., Endocrinology 140, 568-574 (1999)).
For the assay, 50 nl of a 100-fold concentrated solution of the test substance in DMSO were pipetted into a black low-volume 384-well microtiter plate (Greiner Bio-One, Frickenhausen, Germany), 2.5 μl of a solution of AKR1C3 in assay buffer [50 mM potassium phosphate buffer pH 7, 1 mM DTT, 0.0022% (w/v) Pluronic F-127, 0.01% BSA (w/v) and protease inhibitor cocktail (Complete, EDTA-free Protease Inhibitor Cocktail from Roche)] were added and the mixture was incubated for 15 min to allow pre-binding of the substances to the enzyme prior to the enzyme reaction. The enzyme reaction was then started by addition of 2.5 μl of a solution of NADPH (20 μM→final concentration in 5 μl of assay volume is 10 μM) and Coumberone (0.6 μM→final concentration in 5 μl of assay volume is 0.3 μM) in assay buffer, and the resulting mixture was incubated at 22° C. for the reaction time of typically 90 min. The concentration of the AKR1C3 and the reaction time was adapted to the respective activity of the enzyme preparation and adjusted such that the assay was carried out in the linear range. Typical AKR1C3 concentrations were in the region of 1 nM. The reaction was stopped by addition of 2.5 μl of a stop solution consisting of 3 μM EM-1404 as inhibitor (U.S. Pat. No. 6,541,463) in 50 mM HEPES pH7.5 (3 μM EM-1404→final concentration in 7.5 μl of assay volume is 1 μM). The fluorescence of the Coumberole was then measured at 520 nm (excitation at 380 nm) using a suitable measuring instrument (Pherastar from BMG Labtechnologies). The intensity of the fluorescence was used as a measure of the amount of Coumberole formed and thus of the enzyme activity of AKR1C3. The data were normalized (enzyme reaction without inhibitor=0% inhibition; all other assay components, but no enzyme=100% inhibition).

Sequence of recombinant human AKR1C3 (P42330 whole entry): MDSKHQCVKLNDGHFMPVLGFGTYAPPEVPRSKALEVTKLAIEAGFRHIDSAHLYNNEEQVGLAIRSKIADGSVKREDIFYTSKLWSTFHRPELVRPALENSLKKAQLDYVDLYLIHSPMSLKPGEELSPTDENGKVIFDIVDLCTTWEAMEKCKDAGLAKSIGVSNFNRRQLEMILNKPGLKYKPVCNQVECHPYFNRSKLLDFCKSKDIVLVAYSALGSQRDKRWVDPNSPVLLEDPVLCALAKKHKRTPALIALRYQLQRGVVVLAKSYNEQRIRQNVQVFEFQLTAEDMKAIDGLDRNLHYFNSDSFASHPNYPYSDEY

In the case of `O=C(c1cnn[nH]1)N1CC2CCC(C1)N2S(=O)(=O)c1ccc(Cl)c(Cl)c1` [Example 48, {8-[(3,4-dichlorophenyl)sulfonyl]-3,8-diazabicyclo[3.2.1]oct-3-yl}(1H-1,2,3-triazol-5-yl)methanone], the half-maximal inhibitory concentration (IC50) amounted to 1.1 nM. The same measure for `O=C(c1cnn[nH]1)N1CC2CCC(C1)N2S(=O)(=O)c1ccc(Br)cc1` [Example 38, {8-[(4-bromophenyl)sulfonyl]-3,8-diazabicyclo[3.2.1]oct-3-yl}(1H-1,2,3-triazol-5-yl)methanone]: 1.5 nM; for `N#Cc1ccccc1S(=O)(=O)N1C2CCC1CN(C(=O)c1cnn[nH]1)C2` [Example 35, 2-{[3-(1H-1,2,3-triazol-5-ylcarbonyl)-3,8-diazabicyclo[3.2.1]oct-8-yl]sulfonyl}benzonitrile]: 6 nM; for `Cc1ccc(S(=O)(=O)N2C3CCC2CN(C(=O)c2cnn[nH]2)C3)cc1` [Example 14, {8-[(4-methylphenyl)sulfonyl]-3,8-diazabicyclo[3.2.1]oct-3-yl}(1H-1,2,3-triazol-5-yl)methanone]: 1.9 nM. The same measure for `O=C(c1cnn[nH]1)N1CC2CCC(C1)N2S(=O)(=O)c1c(Cl)cc(Cl)cc1Cl` [Example 56, 1H-1,2,3-triazol-5-yl{8-[(2,4,6-trichlorophenyl)sulfonyl]-3,8-diazabicyclo[3.2.1]oct-3-yl}methanone]: 1.4 nM. Under `O=C(c1cnn[nH]1)N1CC2CCC(C1)N2S(=O)(=O)c1cccc2ccccc12` [Example 39, [8-(naphthalen-1-ylsulfonyl)-3,8-diazabicyclo[3.2.1]oct-3-yl](1H-1,2,3-triazol-5-yl)methanone] stands 1.3 nM; under `O=C(c1cnn[nH]1)N1CC2CCC(C1)N2S(=O)(=O)c1ccc(C(F)(F)F)cc1` [Example 36, 1H-1,2,3-triazol-5-yl[8-{[4-(trifluoromethyl)phenyl]sulfonyl}-3,8-diazabicyclo[3.2.1]oct-3-yl]methanone], 3.3 nM. On to `COc1cc(F)ccc1S(=O)(=O)N1C2CCC1CN(C(=O)c1cnn[nH]1)C2` [Example 72, {8-[(4-fluoro-2-methoxyphenyl)sulfonyl]-3,8-diazabicyclo[3.2.1]oct-3-yl}(1H-1,2,3-triazol-5-yl)methanone], for which the half-maximal inhibitory concentration (IC50) was found to be 1.1 nM. In the case of `Cc1c(Cl)cccc1S(=O)(=O)N1C2CCC1CN(C(=O)c1cnn[nH]1)C2` [Example 26, {8-[(3-chloro-2-methylphenyl)sulfonyl]-3,8-diazabicyclo[3.2.1]oct-3-yl}(1H-1,2,3-triazol-5-yl)methanone], the concentration for half-maximal inhibition (IC50) amounted to 1.1 nM.

Turning to `O=C(c1cnn[nH]1)N1CC2CCC(C1)N2S(=O)(=O)c1cccc(F)c1` [Example 4, {8-[(3-fluorophenyl)sulfonyl]-3,8-diazabicyclo[3.2.1]oct-3-yl}(1H-1,2,3-triazol-5-yl)methanone], the IC50 was determined as 1.2 nM.

Consider `N#Cc1cccc(S(=O)(=O)N2C3CCC2CN(C(=O)c2cnn[nH]2)C3)c1` [Example 17, 3-{[3-(1H-1,2,3-triazol-5-ylcarbonyl)-3,8-diazabicyclo[3.2.1]oct-8-yl]sulfonyl}benzonitrile], for which the concentration for half-maximal inhibition (IC50) was found to be 2.9 nM. `O=C(c1cnn[nH]1)N1CC2CCC(C1)N2S(=O)(=O)c1ccc([N+](=O)[O-])cc1` [Example 43, {8-[(4-nitrophenyl)sulfonyl]-3,8-diazabicyclo[3.2.1]oct-3-yl}(1H-1,2,3-triazol-5-yl)methanone]: the IC50 is 9.1 nM. On to `N#Cc1c(Cl)cccc1S(=O)(=O)N1C2CCC1CN(C(=O)c1cnn[nH]1)C2` [Example 68, 2-chloro-6-{[3-(1H-1,2,3-triazol-5-ylcarbonyl)-3,8-diazabicyclo[3.2.1]oct-8-yl]sulfonyl}benzonitrile], for which the IC50 worked out at 1.3 nM. `O=C(c1cnn[nH]1)N1CC2CCC(C1)N2S(=O)(=O)c1cc(F)ccc1Cl` [Example 70, {8-[(2-chloro-5-fluorophenyl)sulfonyl]-3,8-diazabicyclo[3.2.1]oct-3-yl}(1H-1,2,3-triazol-5-yl)methanone]: the IC50 was 0.5 nM. In the case of `COc1cc(C)ccc1S(=O)(=O)N1C2CCC1CN(C(=O)c1cnn[nH]1)C2` [Example 67, {8-[(2-methoxy-4-methylphenyl)sulfonyl]-3,8-diazabicyclo[3.2.1]oct-3-yl}(1H-1,2,3-triazol-5-yl)methanone], the IC50 came to 1 nM. On to `O=C(c1cnn[nH]1)N1CC2CCC(C1)N2S(=O)(=O)c1ccc(F)c(F)c1` [Example 23, {8-[(3,4-difluorophenyl)sulfonyl]-3,8-diazabicyclo[3.2.1]oct-3-yl}(1H-1,2,3-triazol-5-yl)methanone], for which the IC50 was 2.2 nM.

Take `O=C(c1cnn[nH]1)N1CC2CCC(C1)N2S(=O)(=O)c1cc(F)cc(F)c1` [Example 3, {8-[(3,5-difluorophenyl)sulfonyl]-3,8-diazabicyclo[3.2.1]oct-3-yl}(1H-1,2,3-triazol-5-yl)methanone]: the IC50 turned out to be 1.4 nM. The same measure for `O=C(c1cnn[nH]1)N1CC2CCC(C1)N2S(=O)(=O)c1cccc(Cl)c1` [Example 5, {8-[(3-chlorophenyl)sulfonyl]-3,8-diazabicyclo[3.2.1]oct-3-yl}(1H-1,2,3-triazol-4-yl)methanone]: 1.2 nM; for `COc1ccc(S(=O)(=O)N2C3CCC2CN(C(=O)c2cnn[nH]2)C3)cc1` [Example 21, {8-[(4-methoxyphenyl)sulfonyl]-3,8-diazabicyclo[3.2.1]oct-3-yl}(1H-1,2,3-triazol-5-yl)methanone]: 2 nM.

On to `Cc1ccc(Cl)cc1S(=O)(=O)N1C2CCC1CN(C(=O)c1cnn[nH]1)C2` [Example 63, {8-[(5-chloro-2-methylphenyl)sulfonyl]-3,8-diazabicyclo[3.2.1]oct-3-yl}(1H-1,2,3-triazol-5-yl)methanone], for which the IC50 stood at 1.7 nM. Regarding `O=C(c1cnn[nH]1)N1CC2CCC(C1)N2S(=O)(=O)c1ccccc1[N+](=O)[O-]` [Example 46, {8-[(2-nitrophenyl)sulfonyl]-3,8-diazabicyclo[3.2.1]oct-3-yl}(1H-1,2,3-triazol-5-yl)methanone], the IC50 was 0.9 nM. In the case of `N#Cc1cc(S(=O)(=O)N2C3CCC2CN(C(=O)c2cnn[nH]2)C3)ccc1F` [Example 60, 2-fluoro-5-{[3-(1H-1,2,3-triazol-5-ylcarbonyl)-3,8-diazabicyclo[3.2.1]oct-8-yl]sulfonyl}benzonitrile], the IC50 was 28.4 nM. For `Cc1cc(C)c(S(=O)(=O)N2C3CCC2CN(C(=O)c2cnn[nH]2)C3)c(C)c1` [Example 45, 1H-1,2,3-triazol-5-yl{8-[(2,4,6-trimethylphenyl)sulfonyl]-3,8-diazabicyclo[3.2.1]oct-3-yl}methanone], the 50% inhibitory concentration (IC50) worked out at 1.4 nM. The same measure for `COc1ccc(Cl)cc1S(=O)(=O)N1C2CCC1CN(C(=O)c1cnn[nH]1)C2` [Example 57, {8-[(5-chloro-2-methoxyphenyl)sulfonyl]-3,8-diazabicyclo[3.2.1]oct-3-yl}(1H-1,2,3-triazol-5-yl)methanone]: 9.7 nM; for `O=C(c1cnn[nH]1)N1CC2CCC(C1)N2S(=O)(=O)c1ccccc1F` [Example 15, {8-[(2-fluorophenyl)sulfonyl]-3,8-diazabicyclo[3.2.1]oct-3-yl}(1H-1,2,3-triazol-5-yl)methanone]: 1.5 nM; for `O=C(c1cnn[nH]1)N1CC2CCC(C1)N2S(=O)(=O)c1cc(Cl)ccc1C(F)(F)F` [Example 34, [8-{[5-chloro-2-(trifluoromethyl)phenyl]sulfonyl}-3,8-diazabicyclo[3.2.1]oct-3-yl](1H-1,2,3-triazol-5-yl)methanone]: 1.9 nM. On to `O=C(c1cnn[nH]1)N1CC2CCC(C1)N2S(=O)(=O)c1ccc2nsnc2c1` [Example 58, [8-(2,1,3-benzothiadiazol-5-ylsulfonyl)-3,8-diazabicyclo[3.2.1]oct-3-yl](1H-1,2,3-triazol-5-yl)methanone], for which the IC50 came to 1.2 nM.

`O=C(c1cnn[nH]1)N1CC2CC[C@@H](C1)N2S(=O)(=O)c1cccc(Cl)c1Cl` [Example 53, {(1S)-8-[(2,3-dichlorophenyl)sulfonyl]-3,8-diazabicyclo[3.2.1]oct-3-yl}(1H-1,2,3-triazol-5-yl)methanone]: the IC50 is 0.8 nM.

The IC50 is the concentration that gives 50% inhibition.

The values are drawn from US10167293B2, “[8-(phenylsulfonyl)-3,8-diazabicyclo[3.2.1]oct-3-yl](1H-1,2,3-triazol-4-yl)methanones” (BAYER PHARMA AKTIENGESELLSCHAFT, priority 2016, dated 2019).
